For eight molecules, GI50 and TGI results are on record in PubChem BioAssay (NCI).

Among the test systems are A498 renal; HCT-116 colon; HL-60(TB) leukemia; K-562 leukemia; M14 melanoma; MDA-MB-435; MOLT-4 leukemia; NCI-H226 lung; SK-MEL-28 melanoma; SW-620 colon.
Common to all, as to experiment: NCI tumour cell line growth inhibition, 48 h

The structures appear in SMILES notation. Where “and” joins values, the source holds several entries; their conditions need not be identical. Identical values can stand only once.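 Cultured in 96-well plates, cells were exposed to test compound for 48 hours across five concentrations. At the GI50, growth is halved. TGI: concentration producing complete growth inhibition.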

Consider `CCC[CH2][Sn]1([CH2]CCC)[O]C(=O)c2ccc(N)cc2[O]1`, for which the GI50 in the test with A498 renal was 0.278 µM; in the test on HCT-116 colon, 0.965 µM; with HL-60(TB) leukemia it was 0.105 µM; in the test on K-562 leukemia it was 0.111 µM; with M14 melanoma it was 0.576 µM; in the test on MDA-MB-435 it was 1.58 µM. The GI50 in the test with MOLT-4 leukemia was 0.254 µM; in the test on NCI-H226 lung, 0.857 µM; in the test on SK-MEL-28 melanoma it was 0.397 µM; in the test with SW-620 colon it was 0.224 µM. Also, the TGI was found to be 0.763 µM in the test on A498 renal; 2.19 µM with HCT-116 colon; 1.67 µM in the test on HL-60(TB) leukemia; 8.5 µM with K-562 leukemia; 2.18 µM in the test on M14 melanoma; 3.08 µM with MDA-MB-435. In addition, the TGI turned out to be 2.43 µM in the test with MOLT-4 leukemia, 2.64 µM with NCI-H226 lung, 1.48 µM in the test with SK-MEL-28 melanoma and 1.09 µM in the test with SW-620 colon.

As for `CNCCNc1nc2ccccc2c2c(=O)c3cc(F)ccc3sc12`, the GI50 in the test on A498 renal was 2.05 µM; in the test on HCT-116 colon it was 1.49 µM; in the test with HL-60(TB) leukemia it was 1.89 µM; in the test on K-562 leukemia, 1.64 µM; in the test with M14 melanoma it was 1.64 µM; in the test on MDA-MB-435 it was 1.71 µM. Besides, the GI50 in the test on MOLT-4 leukemia is 1.72 µM; in the test with NCI-H226 lung, 1.8 µM; in the test with SK-MEL-28 melanoma, 1.85 µM; in the test on SW-620 colon, 1.66 µM. The TGI in the test with A498 renal was 6.96 µM; in the test with HCT-116 colon it was 2.81 µM; in the test with HL-60(TB) leukemia, 3.66 µM; in the test on K-562 leukemia, 4.35 µM; in the test with M14 melanoma, 3.07 µM; in the test with MDA-MB-435, 3.22 µM. In addition, the TGI with MOLT-4 leukemia worked out at 3.5 µM; with NCI-H226 lung, 3.76 µM; in the test on SK-MEL-28 melanoma it was 3.38 µM; in the test with SW-620 colon it was 3.24 µM.

Regarding `C/C(=N\NC(=S)N1CCN(c2ccccn2)CC1)c1nccs1`, the TGI in the test with A498 renal was 17.4 µM; in the test with HCT-116 colon, 20.2 µM; in the test on HL-60(TB) leukemia it was 0.0419 µM and 0.0526 µM; with K-562 leukemia, 6.33 µM; in the test with M14 melanoma, 1.49 µM; in the test with MDA-MB-435, 12.8 µM. Also, the TGI is 22.3 µM in the test on MOLT-4 leukemia, 6.66 µM in the test with NCI-H226 lung, 19.9 µM with SK-MEL-28 melanoma and 20.2 µM in the test with SW-620 colon. Moreover, the GI50 in the test with HCT-116 colon was 0.0156 µM; in the test with HL-60(TB) leukemia, 0.00712 µM; with K-562 leukemia it was 0.00649 µM; with MOLT-4 leukemia it was 0.00504 µM.

In the case of `CC(=O)c1cccc(-c2cccc(-c3ccn(CCN4CCOCC4)n3)c2)c1`, the GI50 in the test on A498 renal is 14.5 µM; in the test with HCT-116 colon it was more than 20 µM; in the test on HL-60(TB) leukemia it was more than 20 µM; in the test with K-562 leukemia, more than 20 µM; with M14 melanoma, more than 20 µM; with MDA-MB-435, more than 20 µM. The GI50 in the test with MOLT-4 leukemia, in the test on NCI-H226 lung, in the test on SK-MEL-28 melanoma and in the test on SW-620 colon was more than 20 µM throughout. Further, the TGI in the test on A498 renal, in the test on HCT-116 colon, with HL-60(TB) leukemia, in the test with K-562 leukemia, with M14 melanoma and in the test with MDA-MB-435 was more than 20 µM in each case. In addition, the TGI with MOLT-4 leukemia, in the test with NCI-H226 lung, in the test on SK-MEL-28 melanoma and in the test with SW-620 colon was more than 20 µM in each case.

`Nc1cc2[nH]cnc2c(=O)[nH]1`: the TGI is 298 µM with A498 renal; more than 300 µM in the test on HCT-116 colon; 178 µM in the test with HL-60(TB) leukemia; more than 300 µM with K-562 leukemia; more than 300 µM with M14 melanoma; more than 300 µM in the test on MDA-MB-435. For the same molecule, the TGI with MOLT-4 leukemia is more than 300 µM; in the test with NCI-H226 lung it was more than 212 µM; in the test with SK-MEL-28 melanoma, more than 300 µM; in the test on SW-620 colon it was more than 300 µM.

As to `CC(C(=O)O)c1ccc(-c2ccccc2)c(F)c1` (stereo not drawn), the TGI in the test on A498 renal, with HCT-116 colon, in the test with HL-60(TB) leukemia, in the test with K-562 leukemia, in the test with M14 melanoma and in the test on MDA-MB-435 was more than 100 µM each time. Moreover, the TGI in the test on MOLT-4 leukemia, in the test with NCI-H226 lung, in the test with SK-MEL-28 melanoma and in the test on SW-620 colon was more than 100 µM in each case.

Regarding `N=c1ccc2nc3c(cc(N)c4ccccc43)oc-2c1`, the TGI in the test with A498 renal amounted to 0.78 µM; with HCT-116 colon, 0.353 µM; in the test on HL-60(TB) leukemia it was 0.733 µM; in the test on K-562 leukemia, 1.18 µM; with M14 melanoma, 0.338 µM; in the test with MDA-MB-435, 0.338 µM. The TGI in the test on MOLT-4 leukemia came to 1.05 µM; in the test on NCI-H226 lung, 1.63 µM; in the test with SK-MEL-28 melanoma, 2.54 µM; with SW-620 colon, 0.754 µM. In addition, the GI50 with HCT-116 colon is 0.167 µM; in the test with HL-60(TB) leukemia, 0.147 µM; in the test on K-562 leukemia it was 0.298 µM; in the test with M14 melanoma, 0.164 µM; in the test on MDA-MB-435, 0.182 µM; in the test with MOLT-4 leukemia, 0.287 µM. Moreover, the values for the GI50 with NCI-H226 lung, with SK-MEL-28 melanoma and in the test on SW-620 colon were 0.386 µM, 1.19 µM and 0.252 µM, respectively.

With `C[C@]12CC[C@H]3[C@@H](CC[C@]4(O)C[C@@H](O)CC[C@]34CO)[C@@]1(O)CC[C@@H]2C1=CC(=O)OC1`, the TGI in the test with A498 renal was 5.1 µM; in the test with HCT-116 colon, 4.31 µM; in the test with HL-60(TB) leukemia, 8.23 µM; in the test on K-562 leukemia, more than 100 µM; in the test on M14 melanoma, 14.5 µM; with MDA-MB-435, 9.45 µM. Moreover, the TGI in the test on MOLT-4 leukemia is 0.726 µM; in the test on NCI-H226 lung, 13.8 µM; with SK-MEL-28 melanoma, 22.5 µM; in the test on SW-620 colon, more than 27 µM.
